Broadly, the IC50 is the midpoint of a concentration-inhibition curve. Lower therefore signals greater potency in that assay.

The target of series [1] is ATP-binding cassette sub-family C member 2 (Homo sapiens, UniProt Q92887). As to the kind of experiment: Inhibition of human MRP2 expressed in dog MDCK2 cells. The note with it: for Activity: human, mdck-ii. The class given is cell-based, MDCK-II.
Series [2] addresses ATP-dependent translocase ABCB1 (Homo sapiens, UniProt P08183). The experiment in a line: Inhibition of P-gp in human A2780 cells. Type of series: cell-based. Conditions: for Activity: human, a2780; call rule not given here.
Series [3] concerns the target Multidrug resistance-associated protein 1 (Homo sapiens, UniProt P33527). The experiment in a line: Inhibition of human MRP1 in human 2008 cells assessed as increase in calcein-AM accumulation. The class given is cell-based.

Sequence of ATP-dependent translocase ABCB1 (P08183 whole entry): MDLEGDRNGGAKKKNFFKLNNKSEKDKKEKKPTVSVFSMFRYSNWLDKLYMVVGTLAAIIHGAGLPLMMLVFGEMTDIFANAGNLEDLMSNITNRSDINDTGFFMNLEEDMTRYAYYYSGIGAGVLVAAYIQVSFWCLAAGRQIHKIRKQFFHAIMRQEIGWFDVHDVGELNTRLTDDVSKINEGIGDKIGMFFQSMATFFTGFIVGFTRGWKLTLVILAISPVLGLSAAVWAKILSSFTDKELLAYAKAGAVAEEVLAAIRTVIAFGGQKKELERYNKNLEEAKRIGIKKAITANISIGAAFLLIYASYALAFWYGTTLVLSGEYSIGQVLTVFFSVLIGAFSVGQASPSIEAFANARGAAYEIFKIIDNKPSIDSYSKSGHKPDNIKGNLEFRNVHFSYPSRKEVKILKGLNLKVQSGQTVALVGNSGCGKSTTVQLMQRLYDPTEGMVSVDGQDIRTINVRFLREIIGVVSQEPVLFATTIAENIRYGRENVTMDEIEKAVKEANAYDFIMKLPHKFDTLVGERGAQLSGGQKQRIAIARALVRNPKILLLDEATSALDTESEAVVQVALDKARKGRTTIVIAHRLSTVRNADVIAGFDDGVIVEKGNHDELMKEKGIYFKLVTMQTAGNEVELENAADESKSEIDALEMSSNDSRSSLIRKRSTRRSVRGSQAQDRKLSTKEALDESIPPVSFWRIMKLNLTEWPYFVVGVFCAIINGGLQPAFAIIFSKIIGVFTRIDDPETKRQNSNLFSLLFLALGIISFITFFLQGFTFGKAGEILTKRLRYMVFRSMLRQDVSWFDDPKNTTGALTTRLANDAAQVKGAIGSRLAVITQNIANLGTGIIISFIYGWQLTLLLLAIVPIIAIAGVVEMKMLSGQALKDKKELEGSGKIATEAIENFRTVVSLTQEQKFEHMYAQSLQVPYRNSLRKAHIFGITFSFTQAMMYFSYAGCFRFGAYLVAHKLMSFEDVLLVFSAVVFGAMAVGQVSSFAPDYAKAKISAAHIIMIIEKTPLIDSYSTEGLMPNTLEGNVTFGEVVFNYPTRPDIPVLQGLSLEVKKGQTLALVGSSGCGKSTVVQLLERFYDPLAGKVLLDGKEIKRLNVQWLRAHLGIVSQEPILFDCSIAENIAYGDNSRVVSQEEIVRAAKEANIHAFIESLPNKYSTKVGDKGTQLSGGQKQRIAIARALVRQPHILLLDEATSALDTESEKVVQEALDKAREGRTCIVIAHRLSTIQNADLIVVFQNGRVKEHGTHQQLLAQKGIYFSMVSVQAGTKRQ
Sequence of ATP-binding cassette sub-family C member 2 (Q92887 whole entry): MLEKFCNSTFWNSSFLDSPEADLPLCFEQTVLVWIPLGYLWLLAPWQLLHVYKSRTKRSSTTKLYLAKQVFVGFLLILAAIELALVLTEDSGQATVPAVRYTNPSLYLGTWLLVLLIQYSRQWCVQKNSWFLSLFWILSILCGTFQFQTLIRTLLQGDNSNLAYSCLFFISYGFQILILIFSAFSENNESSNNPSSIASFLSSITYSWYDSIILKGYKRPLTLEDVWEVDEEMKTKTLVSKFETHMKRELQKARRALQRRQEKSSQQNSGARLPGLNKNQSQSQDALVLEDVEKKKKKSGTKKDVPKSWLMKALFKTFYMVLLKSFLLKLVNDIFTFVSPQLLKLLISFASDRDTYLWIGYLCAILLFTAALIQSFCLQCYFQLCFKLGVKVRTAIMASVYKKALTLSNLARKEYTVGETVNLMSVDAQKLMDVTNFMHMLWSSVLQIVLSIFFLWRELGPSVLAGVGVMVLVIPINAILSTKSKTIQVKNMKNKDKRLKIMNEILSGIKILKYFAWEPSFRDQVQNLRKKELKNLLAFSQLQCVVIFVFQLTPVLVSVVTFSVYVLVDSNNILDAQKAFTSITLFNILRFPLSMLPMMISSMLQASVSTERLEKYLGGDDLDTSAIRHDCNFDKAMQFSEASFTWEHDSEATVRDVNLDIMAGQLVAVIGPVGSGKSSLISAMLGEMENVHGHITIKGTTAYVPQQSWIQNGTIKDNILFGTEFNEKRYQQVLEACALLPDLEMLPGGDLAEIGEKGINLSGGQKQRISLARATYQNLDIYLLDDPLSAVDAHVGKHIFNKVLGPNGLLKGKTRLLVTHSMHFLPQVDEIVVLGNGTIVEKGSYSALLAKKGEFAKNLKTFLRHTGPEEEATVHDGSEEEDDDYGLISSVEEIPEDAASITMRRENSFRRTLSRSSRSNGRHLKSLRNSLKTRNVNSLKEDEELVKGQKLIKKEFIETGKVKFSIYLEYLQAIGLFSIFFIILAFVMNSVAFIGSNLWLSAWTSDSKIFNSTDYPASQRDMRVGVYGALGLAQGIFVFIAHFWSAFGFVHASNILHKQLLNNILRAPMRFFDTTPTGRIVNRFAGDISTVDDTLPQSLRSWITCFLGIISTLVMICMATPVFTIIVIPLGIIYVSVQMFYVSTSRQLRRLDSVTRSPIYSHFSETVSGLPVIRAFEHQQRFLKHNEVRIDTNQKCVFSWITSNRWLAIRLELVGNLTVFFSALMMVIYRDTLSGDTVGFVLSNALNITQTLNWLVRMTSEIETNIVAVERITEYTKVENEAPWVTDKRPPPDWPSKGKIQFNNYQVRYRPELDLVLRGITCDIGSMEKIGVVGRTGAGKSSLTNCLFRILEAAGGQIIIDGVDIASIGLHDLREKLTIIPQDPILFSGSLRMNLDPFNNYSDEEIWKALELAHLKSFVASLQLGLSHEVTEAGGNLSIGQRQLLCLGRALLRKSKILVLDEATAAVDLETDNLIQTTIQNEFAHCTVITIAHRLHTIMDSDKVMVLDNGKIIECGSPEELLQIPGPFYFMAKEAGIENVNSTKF
Sequence of Multidrug resistance-associated protein 1 (P33527 whole entry): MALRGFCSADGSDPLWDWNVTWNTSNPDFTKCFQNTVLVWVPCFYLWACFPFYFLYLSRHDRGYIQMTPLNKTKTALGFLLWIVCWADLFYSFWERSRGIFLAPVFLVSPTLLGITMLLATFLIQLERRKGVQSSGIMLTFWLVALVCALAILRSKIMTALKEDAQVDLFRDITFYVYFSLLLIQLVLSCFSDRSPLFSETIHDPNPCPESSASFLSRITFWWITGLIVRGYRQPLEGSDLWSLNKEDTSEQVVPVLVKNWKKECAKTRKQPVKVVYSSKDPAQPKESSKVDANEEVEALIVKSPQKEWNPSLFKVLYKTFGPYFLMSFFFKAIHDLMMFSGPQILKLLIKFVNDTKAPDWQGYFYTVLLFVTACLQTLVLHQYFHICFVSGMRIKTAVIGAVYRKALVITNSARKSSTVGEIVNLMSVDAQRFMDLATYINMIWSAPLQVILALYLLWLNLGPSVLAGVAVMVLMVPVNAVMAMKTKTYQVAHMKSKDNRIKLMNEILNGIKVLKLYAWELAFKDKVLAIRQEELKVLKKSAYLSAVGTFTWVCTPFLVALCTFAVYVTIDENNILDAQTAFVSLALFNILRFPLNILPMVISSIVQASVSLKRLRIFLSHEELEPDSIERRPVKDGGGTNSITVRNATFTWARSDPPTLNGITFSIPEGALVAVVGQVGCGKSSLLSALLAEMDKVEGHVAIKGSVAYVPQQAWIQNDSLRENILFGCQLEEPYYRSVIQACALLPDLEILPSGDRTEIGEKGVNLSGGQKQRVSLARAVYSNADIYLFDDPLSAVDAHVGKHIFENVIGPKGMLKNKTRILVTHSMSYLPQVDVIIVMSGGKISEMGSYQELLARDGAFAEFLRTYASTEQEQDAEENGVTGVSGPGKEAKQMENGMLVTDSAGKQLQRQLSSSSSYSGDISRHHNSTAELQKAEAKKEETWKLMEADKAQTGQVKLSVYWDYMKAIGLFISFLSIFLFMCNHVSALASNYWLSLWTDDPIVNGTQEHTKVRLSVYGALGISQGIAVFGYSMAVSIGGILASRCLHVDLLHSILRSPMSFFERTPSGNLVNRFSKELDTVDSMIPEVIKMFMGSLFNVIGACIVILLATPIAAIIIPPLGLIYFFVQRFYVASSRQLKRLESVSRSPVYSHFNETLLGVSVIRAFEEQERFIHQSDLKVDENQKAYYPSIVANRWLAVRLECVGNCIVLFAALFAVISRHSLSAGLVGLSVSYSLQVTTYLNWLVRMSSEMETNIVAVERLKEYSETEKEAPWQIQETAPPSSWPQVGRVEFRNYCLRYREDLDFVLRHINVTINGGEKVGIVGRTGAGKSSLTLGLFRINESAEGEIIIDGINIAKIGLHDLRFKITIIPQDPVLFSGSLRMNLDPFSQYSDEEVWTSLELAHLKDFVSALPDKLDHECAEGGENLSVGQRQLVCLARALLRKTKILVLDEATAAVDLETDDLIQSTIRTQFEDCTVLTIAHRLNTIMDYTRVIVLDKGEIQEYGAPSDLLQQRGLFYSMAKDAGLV

On to `Nc1nc2sc3c(c2c(=O)s1)CCCC3`, for which the Activity entry in series [1] is “Not Active”. The IC50 in series [2] is greater than 200 µM.
With `CCOC(=O)c1c(NC(=S)Nc2ccc(C(=O)O)cc2)sc2c1CCCC2`, the half-maximal inhibitory concentration (IC50) in series [1] is greater than 200 µM. For the same compound, the Activity entry in series [2] is listed as “Not Active”.
As to `O=C(Nc1nc2sc3c(c2c(=O)s1)CCCC3)c1ccccc1`, the Activity entry in series [1] and in series [2] was “Not Active” each time.
In turn, `O=C(O)c1ccc(Nc2nc3sc4c(c3c(=O)s2)CCCC4)cc1` yielded an IC50 in series [1] of 21.5 µM. Further, the Activity result in series [2] is “Not Active”; in series [3], “Active”.
Consider `CN(C)C(=O)CCSC(SCCC(=O)[O-])c1cccc(/C=C/c2ccc3ccc(Cl)cc3n2)c1.[Na+]` (stereo not drawn), for which the IC50 in series [1] came to 20.7 µM. In series [2], the Activity entry is “Not Active”.
The corresponding values for `COc1ccc2c(c1)c(CC(=O)O)c(C)n2C(=O)c1ccc(Cl)cc1` [INDOMETHACIN] are 235 µM and “Not Active”.

The values are drawn from ChEMBL document CHEMBL1140042, “A 4-aminobenzoic acid derivative as novel lead for selective inhibitors of multidrug resistance-associated proteins” (Bioorg Med Chem Lett, 2008).
